Experimental data as given in patent US9505709B2, “Compositions and methods relating to ionic salts of peptides” (Thetis Pharmaceuticals LLC, priority 2014, dated 2016).

Columns and labels:
[1] = Intravenous injection pharmacokinetics, plasma free EPA or free DHA; type: in vivo, Sprague-Dawley rats; details: rat
Method: Experiments via Intravenous Injection: TP-212 and TP-312 were administered by intravenous injection (20 mg/kg) to Sprague-Dawley rats (n=6/group—3 male and 3 female), and plasma was obtained from serial blood samples taken from each animal at scheduled times ([…]). Blood samples were centrifuged to separate red blood cells and the resulting plasma samples were analyzed for free EPA or free DHA. Free EPA or free DHA was extracted from rat plasma with hexane at acidic condition without hydrolysis. Detection was by MS-MS monitoring of negative ion for EPA or DHA. Calculated pharmacokinetic values are mean values from 6 rats for each study drug.
(§1) For all figures and tables, the data are adjusted as follows for comparative purposes. First, the actual plasma levels are baseline adjusted. Thus, for each study arm, the pre-dose level (time=0) is subtracted from the actual plasma levels at each time point, with negative values adjusted to zero. Second, these baseline adjusted values are further adjusted to be molar dose equivalent on a comparative basis among the study arms with respect to EPA or DHA payload (i.e., as if equal amounts of free fatty acid EPA or DHA are administered in each study arm).

[2] = Stability analysis by 1H NMR of samples exposed to air and light; details: ambient temperature
Method: Stability analysis was performed using 1H NMR (400 MHz) with acetic acid-d4 at various time point (typically days 1, 14, 30 and 60) using samples exposed to air and light at ambient temperature (clear vials with no caps).

[3] = Oral pharmacokinetics (oral gavage), plasma free EPA or free DHA; type: in vivo, Sprague-Dawley rats; details: rat
Method: Experiments via Oral Gavage: Oral pharmacokinetic parameters of TP-212 (Lysyl-Lysine Bis-EPA), TP-312 (Lysyl-Lysine Bis-DHA), EPA-EE, EPA FFA and DHA FFA were determined in Sprague-Dawley rats. EPA-EE is 97% pure ethyl ester form of eicosapentaenoic acid. It is the principal polyunsaturated fatty acid in Vascepa, an Omega-3 compound approved in the U.S. for the treatment of severe hypertriglyceridemia. EPA FFA is 97% pure free fatty acid form of eicosapentaenoic acid and DHA FFA is 98% pure free fatty acid DHA. EPA FFA and DHA FFA are the two principal poly-unsaturated fatty acids in Epanova, an Omega-3 compound approved in the U.S. for the treatment of severe hypertriglyceridemia. The subject drugs were administered by oral gavage as an aqueous solution in de-ionized water to 6 Sprague-Dawley rats per group (3 males and 3 females). Rats were dosed at 40 mg/kg. Blood samples were obtained from each rat by jugular vein catheter. Samples were collected at pre-dose and at 0.25, 0.5, 1, 2, 4, 8, 12 and 18 hours post dose. Blood samples were centrifuged to separate red blood cells and the resulting plasma samples were analyzed for free EPA or free DHA. Free EPA or […] extracted from rat plasma with hexane at acidic condition without hydrolysis. Detection was by MS-MS monitoring of negative ion for EPA or DHA. Calculated pharmacokinetic values are mean values from 6 rats for each study drug.
as §1

Balb/C mice = test: Ocular irritation after topical dosing to the cornea (hyperemia, squinting, discharge, lid swelling); type: in vivo; details: for Hyperemia: 3 μL drop in each eye four times daily for 3 days; for Squinting: all concentrations tested, topical to cornea; for Hyperemia at last dose / final evaluation: concentrations that showed an initial increase or all tested, last dose / final evaluation (Day 3); for Concentration at which not irritating / well tolerated: topical to cornea four times daily for 3 days
Method: In an embodiment where the ophthalmic formulation is an aqueous formulation, it has been determined in mice that certain formulations can be administered to the surface of the eye without producing irritation that would make them unsuitable for such application. Irritation parameters of TP-211-1, TP-212-1, TP-311-1 and TP-312-1 related to hyperemia, squinting, and discharge were determined in Balb/C mice. Mice were dosed topically to the cornea using a calibrated micropipette, with a 3 μL drop of treatment in each eye four times daily for 3 consecutive days at various concentrations.
TP-211-1 is Lysyl-lysine EPA. TP-212-1 is Lysyl-lysine bis-EPA. TP-311-1 is Lysyl-lysine DHA. TP-312-1 is Lysyl-lysine bis-DHA. The study drugs were prepared using phosphate buffered saline (PBS) to reach target concentrations ranging from 0.1% to 1.0%.
The animals were monitored for scratching at the eye or any other abnormal behavior post-dose. Ocular exams were conducted on Days 1 and 3 with use of a Micron III camera system to take high resolution videos of the right eye of each animal Clinical signs including but not limited to hyperemia, discharge, lid swelling, and squinting were evaluated by trained personnel who was masked as to group assignment. Each clinical sign was graded on a scale of 0-4, with the exception of lid swelling which was graded on a scale of 0-2. Scores were averaged and are expressed as the mean±SEM for each group. Statistical significance was assessed between the treatment arms and the vehicle group. Any significance is noted by asterisks (*=p<0.05, **=p<0.01, ***=p<0.001).

[4] = intravenous injection 20 mg/kg, molar dose equivalent, baseline adjusted
[5] = oral gavage 40 mg/kg, molar dose equivalent, baseline adjusted

CC/C=C\C/C=C\C/C=C\C/C=C\C/C=C\C/C=C\CCC(=O)O.CC/C=C\C/C=C\C/C=C\C/C=C\C/C=C\C/C=C\CCC(=O)O.NCCCC[C@H](NC(=O)[C@@H](N)CCCCN)C(=O)O [Compound 4, (L,L) Lysyl-lysine bis DHA]
Tmax (free DHA) ([1]; intravenous injection 20 mg/kg): 1 min
Plasma level of free DHA ([1]; intravenous injection 20 mg/kg, 1 min, molar dose equivalent, baseline adjusted): 66.4 µg/mL
Plasma level of free DHA ([1]; intravenous injection 20 mg/kg, 5 min, molar dose equivalent, baseline adjusted): 15.1 µg/mL
Plasma level of free DHA ([1]; intravenous injection 20 mg/kg, 10 min, molar dose equivalent, baseline adjusted): 16.6 µg/mL
Plasma level of free DHA ([1]; intravenous injection 20 mg/kg, 15 min, molar dose equivalent, baseline adjusted): 17.5 µg/mL
Plasma level of free DHA ([1]; intravenous injection 20 mg/kg, 30 min, molar dose equivalent, baseline adjusted): 16.4 µg/mL
Plasma level of free DHA ([1]; intravenous injection 20 mg/kg, 60 min, molar dose equivalent, baseline adjusted): 12.9 µg/mL
Plasma level of free DHA ([1]; intravenous injection 20 mg/kg, 120 min, molar dose equivalent, baseline adjusted): 8.5 µg/mL
Plasma level of free DHA ([1]; intravenous injection 20 mg/kg, 240 min, molar dose equivalent, baseline adjusted): 7.8 µg/mL
Plasma level of free DHA ([1]; intravenous injection 20 mg/kg, first line (time printed as dash, pre-dose), molar dose equivalent, baseline adjusted): 0.0 µg/mL
AUC 0-1 hrs (free DHA) [1, 4]: 16.3 µg·h/mL
AUC 0-4 hrs (free DHA) [1, 4]: 43.3 µg·h/mL
Cmax (free DHA) [1, 4]: 66.4 µg/mL
AUC over 1 hour (free DHA), times greater than DHApo ([1]; intravenous vs oral gavage): ~14.7 times
AUC over 1 hour (free DHA), times greater than TP-312po ([1]; intravenous vs oral gavage): approximately 4.9 times
AUC over 4 hours (free DHA), times greater than DHApo ([1]; intravenous vs oral gavage): ~5.0 times
AUC over 4 hours (free DHA), times greater than TP-312po ([1]; intravenous vs oral gavage): approximately 1.6 times
Cmax (free DHA), times greater than DHApo ([1]; intravenous vs oral gavage): ~19.3 times
Cmax (free DHA), times greater than TP-312po ([1]; intravenous vs oral gavage): approximately 6.4 times
Stability by NMR (amount of sample remaining relative to original sample) ([2]; Day 3): 1 (1 = >95%)
Stability by NMR (amount of sample remaining relative to original sample) ([2]; Day 14): 1 (1 = >95%)
Stability by NMR (amount of sample remaining relative to original sample) ([2]; Day 30): 1 (1 = >95%)
Stability by NMR (amount of sample remaining relative to original sample) ([2]; Day 60): 1 (1 = >95%)
Tmax (free DHA) ([3]; oral gavage 40 mg/kg): 2 h
Plasma level of free DHA ([3]; oral gavage 40 mg/kg, 0 h (pre-dose), molar dose equivalent, baseline adjusted): 0.0 µg/mL
Plasma level of free DHA ([3]; oral gavage 40 mg/kg, 0.25 h (15 min), molar dose equivalent, baseline adjusted): 0.0 µg/mL
Plasma level of free DHA ([3]; oral gavage 40 mg/kg, 0.5 h (30 min), molar dose equivalent, baseline adjusted): 4.6 µg/mL
Plasma level of free DHA ([3]; oral gavage 40 mg/kg, 1 h (60 min), molar dose equivalent, baseline adjusted): 6.3 µg/mL
Plasma level of free DHA ([3]; oral gavage 40 mg/kg, 2 h (120 min), molar dose equivalent, baseline adjusted): 10.4 µg/mL
Plasma level of free DHA ([3]; oral gavage 40 mg/kg, 4 h (240 min), molar dose equivalent, baseline adjusted): 5.6 µg/mL
Plasma level of free DHA ([3]; oral gavage 40 mg/kg, 8 h, molar dose equivalent, baseline adjusted): 1.4 µg/mL
Plasma level of free DHA ([3]; oral gavage 40 mg/kg, 12 h, molar dose equivalent, baseline adjusted): 0.0 µg/mL
Plasma level of free DHA ([3]; oral gavage 40 mg/kg, 18 h, molar dose equivalent, baseline adjusted): 0.0 µg/mL
AUC 0-1 hrs (free DHA) [3, 5]: 3.3 µg·h/mL
AUC 0-4 hrs (free DHA) [3, 5]: 27.6 µg·h/mL
AUC 0-18 hrs (free DHA) [3, 5]: 44.4 µg·h/mL
Cmax (free DHA) [3, 5]: 10.4 µg/mL
AUC over 18 hours (free DHA), times greater than DHA-FFA ([3]; oral gavage): approximately 1.2 times
Cmax (free DHA), times greater than DHA-FFA ([3]; oral gavage): approximately 3.0 times
Hyperemia (Balb/C mice; 0.1% concentration in PBS): did not cause any significant increase in hyperemia after the first dose
Hyperemia (Balb/C mice; 0.5% concentration in PBS): some initial hyperemia after the first dose
Hyperemia (Balb/C mice; 1.0% concentration in PBS): some initial hyperemia after the first dose
Squinting (Balb/C mice): none of the concentrations caused squinting throughout the study
Hyperemia at last dose / final evaluation (Balb/C mice): remained at baseline levels of hyperemia by the last dose of the day
Concentration at which not irritating / well tolerated (Balb/C mice): less than 1.0%

CC/C=C\C/C=C\C/C=C\C/C=C\C/C=C\CCCC(=O)O.NCCCC[C@H](NC(=O)[C@@H](N)CCCCN)C(=O)O [Compound 1, (L,L) Lysyl-lysine EPA salt (mono)]
Stability by NMR (amount of sample remaining relative to original sample) ([2]; Day 3): 1 (1 = >95%)
Stability by NMR (amount of sample remaining relative to original sample) ([2]; Day 14): 1 (1 = >95%)
Stability by NMR (amount of sample remaining relative to original sample) ([2]; Day 30): 1 (1 = >95%)
Stability by NMR (amount of sample remaining relative to original sample) ([2]; Day 60): 1 (1 = >95%)
Hyperemia (Balb/C mice; 0.1% concentration in PBS): maintained baseline levels of hyperemia throughout both evaluations
Hyperemia (Balb/C mice; 0.25% concentration in PBS): maintained baseline levels of hyperemia throughout both evaluations
Hyperemia (Balb/C mice; 0.5% concentration in PBS): some initial increase in hyperemia
Squinting (Balb/C mice): no statistically significant changes in squinting
Hyperemia at last dose / final evaluation (Balb/C mice): returned to baseline levels by the last dose on Day 3
Concentration at which not irritating / well tolerated (Balb/C mice): less than 0.5%
